Where a name gives a salt, the structure may show the parent alone. Bounds are passed on as bounds.

Our source for the IC50 values is US10023592B2, “Bromodomain inhibitors” (Celgene Quanticel Research, Inc., priority 2013, dated 2018).

In one experiment the target is BRD4(BD1) (Homo sapiens (Human), UniProt O60885). As to the kind of experiment: In vitro enzyme inhibition assay (BRD4 AlphaScreen). It counts as binding. The settings on record: class symbols A/B/C. As for the experimental part: His-tagged BRD4 was cloned, expressed and purified to homogeneity. […] BRD4 binding and inhibition was assessed by monitoring the interaction of biotinylated H4-tetraacetyl peptide (AnaSpec, H4K5/8/12/16(Ac), biotin-labeled) with the target using the AlphaScreen technology (Life Technologies). […] After 20 min incubation at room temp, Alpha streptavidin donor beads and Nickel Chelate acceptor beads were added to a final concentration of 5 μg/mL.
The ability of the compounds disclosed herein to inhibit BRD4 activity was quantified and the respective IC50 value was determined.
In general terms: In Alpha technology, singlet oxygen from a donor bead excites a nearby acceptor bead.
Usually IC50 stands for the concentration that gives 50% inhibition. `Cn1cc(-c2cc(N)ccc2F)c2ccccc2c1=O` [Example 23, 4-(5-amino-2-fluorophenyl)-2-methylisoquinolin-1-one hydrochloride]: the IC50 fell in the range of 500 to 5000 nM.

`CCNS(=O)(=O)c1cccc(-c2cn(C)c(=O)c3ccncc23)c1` [Example 124, N-ethyl-3-(2-methyl-1-oxo-2,6-naphthyridin-4-yl) benzenesulfonamide] came in with a half-maximal inhibitory concentration (IC50) of 500 to 5000 nM. Still for that read-out and setting: the value for `Cn1cc(-c2cccc(S(C)(=O)=O)c2)nc(N)c1=O` [Example 104, 3-amino-1-methyl-5-(3-methylsulfonylphenyl)pyrazin-2-one] was over 5000 nM; that for `CCS(=O)(=O)c1cccc(-c2cn(C)c(=O)c3ccncc23)c1` [Example 126, 4-(3-ethylsulfonylphenyl)-2-methyl-2,6-naphthyridin-1-one] was over 5000 nM; that for `CCN(CC)c1cc(-c2ccc(OC)c(NS(C)(=O)=O)c2)cn(C)c1=O` [Example 114, N-[5-[5-(diethylamino)-1-methyl-6-oxopyridin-3-yl]-2-methoxyphenyl]methanesulfonamide] was 500 to 5000 nM. Regarding `CCS(=O)(=O)c1cccc(-c2cn(C)c(=O)c3cncn23)c1` [Example 133, 5-(3-ethylsulfonylphenyl)-7-methylimidazo[1,5-a]pyrazin-8-one], the IC50 was over 5000 nM.

As for `CCS(=O)(=O)c1cccc(-c2cn(C)c(=O)c(N)n2)c1` [Example 105, 3-amino-5-(3-ethylsulfonylphenyl)-1-methylpyrazin-2-one], the IC50 is over 5000 nM.

The experiment is the same for the next values; noted with them: in vitro enzyme inhibition assay.
`COc1ccc(COc2cc(-c3cn(C)c(=O)c4ccccc34)cc(S(C)(=O)=O)c2)cc1` [Example 343, 4-[3-[(4-methoxyphenyl)methoxy]-5-methylsulfonylphenyl]-2-methylisoquinolin-1-one]: the concentration for half-maximal inhibition (IC50) lay within 500 to 5000 nM. The same measure, in the same setting: to `COc1ccc2c(=O)n(C)cc(-c3cc(S(=O)(=O)C(C)C)ccc3OCC3CC3)c2c1` [Example 393, 4-[2-(cyclopropylmethoxy)-5-propan-2-ylsulfonylphenyl]-6-methoxy-2-methylisoquinolin-1-one] belongs under 500 nM; to `CCC1CCc2cc(NS(=O)(=O)CC)cc(-c3cn(C)c(=O)c4ccccc34)c2O1` (centres unmarked) [Example 491, N-[2-ethyl-8-(2-methyl-1-oxoisoquinolin-4-yl)-3,4-dihydro-2H-chromen-6-yl]ethanesulfonamide], under 500 nM; to `Cc1cc(-c2cc(S(C)(=O)=O)ccc2OCCC(F)(F)F)cn(C)c1=O` [Example 405, 1,3-dimethyl-5-[5-methylsulfonyl-2-(3,3,3-trifluoropropoxy)phenyl]pyridin-2-one], under 500 nM. Still for that read-out and setting: to `CC(=O)Nc1cc(-c2cccc(NS(C)(=O)=O)c2)cn(C)c1=O` [Example 482, N-[5-[3-(methanesulfonamido)phenyl]-1-methyl-2-oxopyridin-3-yl]acetamide] belongs over 5000 nM. Same read-out and setting: the value for `COc1cc(F)c(CS(C)(=O)=O)cc1-c1ccc(=O)n(C)c1` [Example 475, 5-[4-fluoro-2-methoxy-5-(methylsulfonylmethyl)phenyl]-1-methylpyridin-2-one] was 500 to 5000 nM.

`Cn1cc(-c2cc(CS(C)(=O)=O)ccc2OCC(F)(F)F)c2ocnc2c1=O` [Example 239, 5-methyl-7-[5-(methylsulfonylmethyl)-2-(2,2,2-trifluoroethoxy)phenyl]-[1,3]oxazolo[4,5-c]pyridin-4-one] registered an IC50 of under 500 nM. Still for that read-out and setting: to `Cn1cc(-c2nc(S(C)(=O)=O)ncc2OCC2CC2)c2ccccc2c1=O` [Example 311, 4-[5-(cyclopropylmethoxy)-2-methylsulfonylpyrimidin-4-yl]-2-methylisoquinolin-1-one] belongs under 500 nM; to `Cc1cc(-c2cc(S(C)(=O)=O)ccc2OCC2CC2)cn(C2CCC2)c1=O` [Example 483, 1-cyclobutyl-5-[2-(cyclopropylmethoxy)-5-methylsulfonylphenyl]-3-methylpyridin-2-one], under 500 nM. Still for that read-out and setting: the value for `CNc1cc(-c2cc(NS(C)(=O)=O)ccc2Oc2ccc(F)cc2F)cn(C)c1=O` [Example 412, N-[4-(2,4-difluorophenoxy)-3-[1-methyl-5-(methylamino)-6-oxopyridin-3-yl]phenyl]methanesulfonamide] was under 500 nM; that for `CCS(=O)(=O)c1ccc(NCC2CC2)c(-c2cn(C)c(=O)cc2C)c1` [Example 423, 5-[2-(cyclopropylmethylamino)-5-ethylsulfonylphenyl]-1,4-dimethylpyridin-2-one] was 500 to 5000 nM. `CCS(=O)(=O)c1ccc(OCC2CC2)c(-c2cn(C)c(=O)c3c2CCC3)c1` [Example 505, 4-[2-(cyclopropylmethoxy)-5-ethylsulfonylphenyl]-2-methyl-6,7-dihydro-5H-cyclopenta[c]pyridin-1-one]: the IC50 was under 500 nM. Same read-out and setting: to `Cc1cc(-c2cc(NS(C)(=O)=O)ccc2Oc2ccc(F)cc2F)cn(C2CCC2)c1=O` [Example 484, N-[3-(1-cyclobutyl-5-methyl-6-oxopyridin-3-yl)-4-(2,4-difluorophenoxy)phenyl]methanesulfonamide] belongs under 500 nM; to `CCS(=O)(=O)c1ccc(NCC2CC2)c(-c2cc(NC)c(=O)n(C)c2)c1` [Example 408, 5-[2-(cyclopropylmethylamino)-5-ethylsulfonylphenyl]-1-methyl-3-(methylamino)pyridin-2-one], under 500 nM; to `CCCCc1cnc(NS(C)(=O)=O)nc1-c1cc(C)c(=O)n(C)c1` [Example 363, N-[5-butyl-4-(1,5-dimethyl-6-oxopyridin-3-yl)pyrimidin-2-yl]methanesulfonamide], under 500 nM. Same read-out and setting: to `Cn1cc(-c2nc(N3CCCS3(=O)=O)ncc2OCC2CC2)c2ccccc2c1=O` [Example 156, 4-[5-(cyclopropylmethoxy)-2-(1,1-dioxo-1,2-thiazolidin-2-yl)pyrimidin-4-yl]-2-methylisoquinolin-1-one] belongs under 500 nM. Regarding `CCS(=O)(=O)Nc1cc(-c2ccc(=O)n(C)c2)c(-c2ccccc2C)s1` [Example 432, N-[4-(1-methyl-6-oxopyridin-3-yl)-5-(2-methylphenyl)thiophen-2-yl]ethanesulfonamide], the IC50 is over 5000 nM. In turn, `CCS(=O)(=O)c1ccc(NCC2CC2)c(-c2cc(OC)c(=O)n(C)c2)c1` [Example 414, 5-[2-(cyclopropylmethylamino)-5-ethylsulfonylphenyl]-3-methoxy-1-methylpyridin-2-one] displayed an IC50 of under 500 nM. On the same count and under the same terms, the value for `CCS(=O)(=O)Nc1ncc(Oc2ccc(F)cc2F)c(-c2cc(C)c(=O)n(CC3CCC3)c2)n1` [Example 299, N-[4-[1-(cyclobutylmethyl)-5-methyl-6-oxopyridin-3-yl]-5-(2,4-difluorophenoxy)pyrimidin-2-yl]ethanesulfonamide] was 500 to 5000 nM; that for `Cn1cc(-c2cc(S(C)(=O)=O)ccc2CCC2CC2)ccc1=O` [Example 315, 5-[2-(2-cyclopropylethyl)-5-methylsulfonylphenyl]-1-methylpyridin-2-one] was under 500 nM. Still for that read-out and setting: to `CCCCc1cnc(S(C)(=O)=O)nc1-c1cc(C)c(=O)n(C)c1` [Example 305, 5-(5-butyl-2-methylsulfonylpyrimidin-4-yl)-1,3-dimethylpyridin-2-one] belongs under 500 nM; to `CCCCn1cc(-c2nc(NS(=O)(=O)CC)ncc2Oc2ccc(F)cc2F)cc(C)c1=O` [Example 297, N-[4-(1-butyl-5-methyl-6-oxopyridin-3-yl)-5-(2,4-difluorophenoxy)pyrimidin-2-yl]ethanesulfonamide], under 500 nM.
